Reference: patent publication US20240150340A1, “CDK Inhibitors And Their Use As Pharmaceuticals” (Prelude Therapeutics Incorporated, priority 2022, published 2024)
pIC50: −log10 of the molar value.

Key:
[1] = target: T1, CDK2/Cyclin E2 (Homo sapiens, UniProt P24941); assay: CDK2/CyclinE2 Enzymatic Activity Assay (TR-FRET); format: biochemical; conditions: ATP 1 mM final, read-out: CDK2_E1 IC50
T1 construct: Recombinant protein complex CDK2/Cyclin E2, expressed from insect cell, was purchased from ProQinase
Method in brief: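 Recombinant insect-cell CDK2/Cyclin E2 (1 nM) phosphorylated ULight-4E-BP1 (50 nM) with 1 mM ATP in HEPES pH 7.4 buffer, after 20 min compound preincubation; MgCl2 (10 mM) started the 45 min reaction at 37° C. Europium anti-phospho-4E-BP1 TR-FRET read; 9-dose IC50 by 4-parameter fit.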

[2] = system: OVCAR3 p-RB; assay: pRB ICW Assay in OVCAR3 Cells; format: cell-based; conditions: Homo sapiens, OVCAR-3, incubated with compound for 2 hours
Method in brief: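 In-Cell Western on OVCAR3: phospho-RB antibody signal with DRAQ5 counterstain read at 700 and 800 nm after fixation. Compounds were applied for 2 h at 37° C. as 9-point ½-log dilutions in duplicate; 10 μM reference compound defined full inhibition.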

[3] = target: T2, CDK4/Cyclin D1 (Homo sapiens, UniProt P11802); assay: CDK4/CyclinD1 Enzymatic Activity Assay (TR-FRET); format: biochemical; conditions: ATP 2 mM final, read-out: CDK4_D1 IC50
T2 construct: purchased ProQinase; host or cells: insect cell
T2 sequence (P11802 whole entry): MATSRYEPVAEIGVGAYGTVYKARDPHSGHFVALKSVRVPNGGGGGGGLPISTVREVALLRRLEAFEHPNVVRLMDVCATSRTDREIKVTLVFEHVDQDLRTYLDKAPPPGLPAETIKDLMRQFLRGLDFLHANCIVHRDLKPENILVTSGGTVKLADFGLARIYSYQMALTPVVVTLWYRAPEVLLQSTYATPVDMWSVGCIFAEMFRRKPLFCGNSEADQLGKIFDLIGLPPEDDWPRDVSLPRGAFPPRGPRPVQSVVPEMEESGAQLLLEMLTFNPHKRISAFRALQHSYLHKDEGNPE
T2 sequence (P24385 whole entry partner): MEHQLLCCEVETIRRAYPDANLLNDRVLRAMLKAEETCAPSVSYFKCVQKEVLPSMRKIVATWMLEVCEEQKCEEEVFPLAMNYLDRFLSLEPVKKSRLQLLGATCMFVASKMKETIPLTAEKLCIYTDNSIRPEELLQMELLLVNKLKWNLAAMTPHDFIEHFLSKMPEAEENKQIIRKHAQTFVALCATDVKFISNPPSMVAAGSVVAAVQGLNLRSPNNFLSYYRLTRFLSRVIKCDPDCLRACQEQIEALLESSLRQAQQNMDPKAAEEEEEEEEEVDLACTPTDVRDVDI
Method: CDK4/CyclinD1 Enzymatic Activity Assay
The inhibitory activity of compounds was evaluated in vitro using TR-FRET assay with white 384-well low volume microplate (Greiner Bio-One). CDK4/Cyclin D1 catalyzed phosphorylation of peptide in the presence and absence of compounds was measured and used in IC50 determination. Recombinant protein complex CDK4/Cyclin D1, expressed from insect cell, was purchased from ProQinase. Testing compounds were dissolved in DMSO at 1 mM and tested in 9-dose IC50 mode. The reaction mixture was prepared by mixing CDK4/CyclinD1 (1 nM final), ULight-4E-BP1 (100 nM final, Perkinelmer, TRF0128-D), and ATP (2 mM final) in assay buffer (20 mM of HEPES pH 7.4, 1 mM of EGTA, 0.05% BSA, 0.005% Tween 20, and 1 mM TCEP). The compound of interest in DMSO was added to each well in 3-fold serial dilution by the dispenser (TECAN D300E) to make a 9.9 μL of reaction mixture. After 20 minutes preincubation at room temperature, 0.1 μL MgCl2 (10 mM final) was added to initiate the reaction. Following a 45-minute incubation at 37° C., the reaction was stopped by addition of 2 μL of quenching buffer consisting of Lance detection buffer (Perkinelmer CR97-100C), LANCE Ultra Europium-anti-P-4E-BP1 (Perkinelmer, TRF0216-D), EDTA, and incubated at room temperature for additional 60 minutes in dark. The reaction signal was measured by Envision multimode plate reader (PerkinElmer, 2102-0010). IC50 values were determined by fitting the data to the standard 4 parameters with Hill Slope using GraphPad Prism software.

Compound	pIC50 [1]	pIC50 [2]	pIC50 [3]
CS(=O)(=O)N1CC[C@H](Nc2ncc(C(F)(F)F)c(-c3cc(C(N)=O)cs3)n2)[C@H](F)C1 [Example 7, 5-(2-(((3R,4S)-3-fluoro-1-(methylsulfonyl)piperidin-4-yl)amino)-5-(trifluoromethyl)pyrimidin-4-yl)thiophene-3-carboxamide]	≥ 7.00	≥ 7.00	≥ 7.00
Cc1sc(-c2nc(N[C@@H]3CCN(S(C)(=O)=O)C[C@H]3F)ncc2C(F)(F)F)cc1C(N)=O [Example 8, 5-(2-(((3R,4R)-3-fluoro-1-(methylsulfonyl)piperidin-4-yl)amino)-5-(trifluoromethyl)pyrimidin-4-yl)-2-methylthiophene-3-carboxamide]	≥ 7.00	≥ 7.00	≥ 7.00
Cc1sc(-c2nc(N[C@H]3CCN(S(C)(=O)=O)C[C@H]3F)ncc2C(F)(F)F)cc1C(N)=O [Example 9, 5-(2-(((3R,4S)-3-fluoro-1-(methylsulfonyl)piperidin-4-yl)amino)-5-(trifluoromethyl)pyrimidin-4-yl)-2-methylthiophene-3-carboxamide]	≥ 7.00	≥ 7.00	≥ 7.00
C[C@@H]1CN(S(C)(=O)=O)CC[C@@H]1Nc1ncc(C(F)(F)F)c(-c2cc(C(N)=O)cs2)n1 [Example 10, 5-(2-(((3R,4S)-3-methyl-1-(methylsulfonyl)piperidin-4-yl)amino)-5-(trifluoromethyl)pyrimidin-4-yl)thiophene-3-carboxamide]	≥ 7.00	6.30 to 7.00	6.30 to 7.00
Cn1cc(S(=O)(=O)N2CC[C@H](Nc3ncc(C(F)(F)F)c(-c4cc(C(N)=O)cs4)n3)[C@H](F)C2)cn1 [Example 11, 5-(2-(((3R,4S)-3-fluoro-1-((1-methyl-1H-pyrazol-4-yl)sulfonyl)piperidin-4-yl)amino)-5-(trifluoromethyl)pyrimidin-4-yl)thiophene-3-carboxamide]	≥ 7.00	≥ 7.00	≥ 7.00
Cn1cnc(S(=O)(=O)N2CC[C@H](Nc3ncc(C(F)(F)F)c(-c4cc(C(N)=O)cs4)n3)[C@H](F)C2)c1 [Example 12, 5-(2-(((3R,4S)-3-fluoro-1-((1-methyl-1H-imidazol-4-yl)sulfonyl)piperidin-4-yl)amino)-5-(trifluoromethyl)pyrimidin-4-yl)thiophene-3-carboxamide]	≥ 7.00	≥ 7.00	≥ 7.00

Next, values leading:

pIC50 [1]	pIC50 [2]	pIC50 [3]	Compound
≥ 7.00	≥ 7.00	≥ 7.00	Cn1cnc(S(=O)(=O)N2CCC(Nc3ncc(C(F)(F)F)c(-c4ncc(CC(C)(C)O)s4)n3)CC2)c1 [Example 3, 2-Methyl-1-(2-(2-((1-((1-methyl-1H-imidazol-4-yl)sulfonyl)piperidin-4-yl)amino)-5-(trifluoromethyl)pyrimidin-4-yl)thiazol-5-yl)propan-2-ol]
≥ 7.00	6.30 to 7.00	≥ 7.00	Cc1sc(-c2nc(N[C@@H]3CCN(S(=O)(=O)c4cnn(C)c4)C[C@H]3F)ncc2C(F)(F)F)cc1C#N [Example 4, 5-(2-(((3R,4R)-3-fluoro-1-((1-methyl-1H-pyrazol-4-yl)sulfonyl)piperidin-4-yl)amino)-5-(trifluoromethyl)pyrimidin-4-yl)-2-methylthiophene-3-carbonitrile]
≥ 7.00	6.30 to 7.00	≥ 7.00	Cc1sc(-c2nc(N[C@@H]3CCN(S(=O)(=O)c4cn(C)cn4)C[C@H]3F)ncc2C(F)(F)F)cc1C#N [Example 5, 5-(2-(((3R,4R)-3-fluoro-1-((1-methyl-1H-imidazol-4-yl)sulfonyl)piperidin-4-yl)amino)-5-(trifluoromethyl)pyrimidin-4-yl)-2-methylthiophene-3-carbonitrile]
≥ 7.00	≥ 7.00	≥ 7.00	CS(=O)(=O)N1CC[C@@H](Nc2ncc(C(F)(F)F)c(-c3cc(C(N)=O)cs3)n2)[C@H](F)C1 [Example 6, 5-(2-(((3R,4R)-3-fluoro-1-(methylsulfonyl)piperidin-4-yl)amino)-5-(trifluoromethyl)pyrimidin-4-yl)thiophene-3-carboxamide]
